US11111217B2, “2-arylbenzimidazoles as Ppargc1a activators for treating neurodegenerative diseases” (The Board of Trustees of the Leland Stanford Junior …, priority 2018, dated 2021)

Test system: TNF-α production by BV2 cells or PBMC
Assay: Cellular assay to measure TNF-α inhibition (LPS-stimulated, ELISA)
Assay type: cell-based, murine (BV2) or human (PBMC)
Conditions: BV2 cells or PBMC (not specified), LPS 100 ng/ml over 24 hours, relative to DMSO vehicle; compound concentration not stated
Source text: Oxidative metabolism exerts an anti-inflammatory effect on myeloid cell phenotype (O'Neill L A, Front Immunol. 2014) and Ppargc1a can promote this energy metabolic pathway (Spiegelman BM, Novartis Found Symp. 2007). Thus, pharmacological activation of Ppargc1a would be expected to inhibit the inflammatory response of myeloid cells. This phenomenon can be measured in cultures by a TNF-α inhibition assay.
Cellular Assay Protocol to Measure TNF-α Inhibition
The murine myeloid cell line BV2 or human peripheral blood mononuclear cells (PBMC) are cultured in RPMI 1640 media (Cat #11875119, Gibco) supplemented with 10% fetal bovine serum and 1% L-glutamine 1% penicillin. These cells are then stimulated with 100 ng/ml of lipopolysaccharide (LPS, O111:B34, Cat # L2630, Sigma) over 24 hours. LPS stimulation results in the secretion of the inflammatory cytokine TNF-α by BV2 cells or PBMC, which can be quantified by ELISA in culture supernatant samples per manufacturer's protocol (Cat #558273 for BV2 and Cat #558299 for PBMC, BD Biosciences). To determine whether exampl compounds 1-78 inhibit TNF-α production by BV2 cells or PBMC, the cells were cultured in the presence of the compounds at different concentrations, and fold reduction in TNF-α production relative to TNF-α production by the same cells cultured in the presence of dimethylsulfoxide (as vehicle control) was determined.

| SMILES | TNF α Inhibition |
| --- | --- |
| CC(C)c1ccc(-c2nc3ccccc3[nH]2)cc1 [Example 33, 2-(4-Isopropylphenyl)-1H-benzo[d]imidazole] | C (C = <50% inh.) |
| Cc1ccc2[nH]c(-c3ccc(C(C)(C)C)cc3)nc2c1 [Example 38, 2-(4-tert-Butylphenyl)-5-methyl-1H-benzo[d]imidazole] | A (A = >80% inh.) |
| Clc1cccc(-c2nc3ccccc3[nH]2)c1 [Example 27, 2-(3-Chlorophenyl)-1H-benzo[d]imidazole] | C (C = <50% inh.) |
| CC(C)(C)c1ccc(-c2nc3ncccc3[nH]2)cc1 [Example 35, 2-(4-tert-Butylphenyl)-1H-imidazo[4,5-b]pyridine] | C (C = <50% inh.) |
| CC(C)Oc1ccc(-c2nc3ccccc3[nH]2)cc1 [Example 69, 2-(4-Isopropoxyphenyl)-1H-benzo[d]imidazole] | A (A = >80% inh.) |
| Clc1ccccc1-c1nc2ccccc2[nH]1 [Example 7, 2-(2-Chlorophenyl)-1H-benzo[d]imidazole] | C (C = <50% inh.) |
| CC(C)(C)c1ccc(-c2nc3cc(Cl)ccc3[nH]2)cc1 [Example 37, 2-(4-tert-Butylphenyl)-5-chloro-1H-benzo[d]imidazole] | A (A = >80% inh.) |
| CC(C)(C)c1ccc(-c2nc3c(N)cccc3[nH]2)cc1 [Example 62, 2-(4-tert-Butylphenyl)-1H-benzo[d]imidazol-4-amine] | A (A = >80% inh.) |
| COc1ccc(-c2nc3c(F)cc(F)cc3[nH]2)cc1 [Example 78, 4,6-Difluoro-2-(4-methoxyphenyl)-1H-benzo[d]imidazole] | C (C = <50% inh.) |
| CC(C)(C)c1ccc(-c2nc3ccccc3[nH]2)cn1 [Example 10, 2-(6-tert-Butyl-3-pyridyl)-1H-benzo[d]imidazole] | A (A = >80% inh.) |
| COc1ccc2[nH]c(-c3ccc(C(C)(C)C)cc3)nc2c1 [Example 29, 2-(4-tert-Butylphenyl)-5-methoxy-1H-benzo[d]imidazole] | A (A = >80% inh.) |
| Oc1ccc(-c2nc3ccccc3[nH]2)cc1 [Example 24, 2-(4-Hydroxy-phenyl)-1H-benzo[d]imidazole] | A (A = >80% inh.) |
| Cc1cccc2[nH]c(-c3ccc(C(C)(C)C)cc3)nc12 [Example 45, 2-(4-tert-Butylphenyl)-4-methyl-1H-benzo[d]imidazole] | A (A = >80% inh.) |
| Nc1ccccc1-c1nc2ccccc2[nH]1 [Example 48, 2-(2-Aminophenyl)-1H-benzo[d]imidazole] | C (C = <50% inh.) |
| Oc1cccc(-c2nc3ccccc3[nH]2)c1 [Example 40, 2-(3-Hydroxyphenyl)-1H-benzo[d]imidazole] | C (C = <50% inh.) |
| Fc1ccccc1-c1nc2ccccc2[nH]1 [Example 17, 2-(2-Fluorophenyl)-1H-benzo[d]imidazole] | C (C = <50% inh.) |
| CC(C)(C)c1ccc(-c2nc3c(Cl)cccc3[nH]2)cc1 [Example 46, 2-(4-tert-Butylphenyl)-4-chloro-1H-benzo[d]imidazole] | A (A = >80% inh.) |
| CC(C)(C)c1ccc(-c2nc3cc(Br)ccc3[nH]2)cc1 [Example 43, 2-(4-tert-Butylphenyl)-5-bromo-1H-benzo[d]imidazole] | A (A = >80% inh.) |
| CCCOc1ccc(-c2nc3ccccc3[nH]2)cc1 [Example 68, 2-(4-Propoxyphenyl)-1H-benzo[d]imidazole] | C (C = <50% inh.) |
| CC(C)(C)c1cc(-c2nc3ccccc3[nH]2)cc(C(C)(C)C)c1 [Example 53, 2-(3,5-di-tert-Butylphenyl)-1H-benzo[d]imidazole] | C (C = <50% inh.) |

| SMILES | TNF α Inhibition |
| --- | --- |
| c1ccc(-c2ccc(-c3nc4ccccc4[nH]3)cc2)cc1 [Example 65, 2-(4-Biphenyl)-1H-benzo[d]imidazole] | C (C = <50% inh.) |
| CC(C)(C)c1ccc(-c2nc3cc(F)ccc3[nH]2)cc1 [Example 41, 2-(4-tert-Butylphenyl)-5-fluoro-1H-benzo[d]imidazole] | C (C = <50% inh.) |
| CC(C)(C)c1ccc(-c2nc3ccccc3o2)cc1 [Example 4, 2-(4-tert-Butylphenyl)-1,3-benzoxazole] | B (B = 50-80% inh.) |
| FC(F)Oc1ccc(-c2nc3ccccc3[nH]2)cc1 [Example 70, 2-(4-(Difluoromethoxy)phenyl)-1H-benzo[d]imidazole] | B (B = 50-80% inh.) |
| CCc1ccc(-c2nc3ccccc3[nH]2)cc1 [Example 28, 2-(4-Ethylphenyl)-1H-benzo[d]imidazole] | C (C = <50% inh.) |
| CC(C)(C)c1ccc(-c2nc3c(O)cccc3[nH]2)cc1 [Example 50, 2-(4-tert-Butylphenyl)-1H-benzo[d]imidazol-4-ol] | A (A = >80% inh.) |
| Fc1cccc(-c2nc3ccccc3[nH]2)c1 [Example 36, 2-(3-Fluorophenyl)-1H-benzo[d]imidazole] | C (C = <50% inh.) |
| CC(C)(C)c1ccc(-c2nc3c(Br)cccc3[nH]2)cc1 [Example 54, 2-(4-tert-Butylphenyl)-4-bromo-1H-benzo[d]imidazole] | A (A = >80% inh.) |
| Cc1cccc(-c2nc3ccccc3[nH]2)c1 [Example 9, 2-(3-Methylphenyl)-1H-benzo[d]imidazole] | C (C = <50% inh.) |
| Cn1c(-c2ccc(C(C)(C)C)cc2)nc2ccccc21 [Example 6, 2-(4-tert-Butylphenyl)-1-methyl-benzo[d]imidazole] | B (B = 50-80% inh.) |
| CCOc1ccc(-c2nc3ccccc3[nH]2)cc1 [Example 67, 2-(4-Ethoxyphenyl)-1H-benzo[d]imidazole] | C (C = <50% inh.) |
| N#Cc1ccc(-c2nc3ccccc3[nH]2)cc1 [Example 18, 2-(4-Cyanophenyl)-1H-benzo[d]imidazole] | C (C = <50% inh.) |
| COc1cccc(-c2nc3ccccc3[nH]2)c1 [Example 20, 2-(3-Methoxy-phenyl)-1H-benzo[d]imidazole] | C (C = <50% inh.) |
| Nc1cccc(-c2nc3ccccc3[nH]2)c1 [Example 47, 2-(3-Aminophenyl)-1H-benzo[d]imidazole] | C (C = <50% inh.) |
| FC(F)(F)c1cccc(-c2nc3ccccc3[nH]2)c1 [Example 39, 2-(3-Trifluoromethylphenyl)-1H-benzo[d]imidazole] | B (B = 50-80% inh.) |
| CC(C)(C)Oc1ccc(-c2nc3ccccc3[nH]2)cc1 [Example 71, 2-(4-tert-Butoxyphenyl)-1H-benzo[d]imidazole] | B (B = 50-80% inh.) |
| CC(C)(C)c1ccc(-c2nc3cc(O)ccc3[nH]2)cc1 [Example 32, 2-(4-tert-Butylphenyl)-1H-benzo[d]imidazol-5-ol] | A (A = >80% inh.) |
| FC(F)(F)c1ccccc1-c1nc2ccccc2[nH]1 [Example 22, 2-(2-Trifluoro-methylphenyl)-1H-benzo[d]imidazole] | C (C = <50% inh.) |
| Brc1ccc(-c2nc3ccccc3[nH]2)cc1 [Example 26, 2-(4-Bromophenyl)-1H-benzo[d]imidazole] | C (C = <50% inh.) |
| c1ccc(-c2nc3ccccc3[nH]2)cc1 [Example 14, 2-(Phenyl)-1H-benzo[d]imidazole] | C (C = <50% inh.) |
